Assay results from ChEMBL document CHEMBL4610109, “Targeting Orthosteric and Allosteric Pockets of Aromatase via Dual-Mode Novel Azole Inhibitors” (ACS Med Chem Lett, 2020).

How the values were obtained:
MCF7 = test: Growth inhibition of human ER-positive MCF7 cells incubated for 72 hrs by cell counter method; type: functional; conditions: MCF7, 72 h
MDA-MB-231 = test: Growth inhibition of human ER-negative MDA-MB-231 cells incubated for 72 hrs by cell counter method; type: functional; conditions: MDA-MB-231, 72 h
Aromatase = target: T1, Aromatase (Homo sapiens, UniProt P11511); test: Inhibition of recombinant human aromatase preincubated for 10 mins followed by substrate and beta-NADP+ addition and measured for 60 mins by fluorescence based assay
T1 sequence (P11511 whole entry): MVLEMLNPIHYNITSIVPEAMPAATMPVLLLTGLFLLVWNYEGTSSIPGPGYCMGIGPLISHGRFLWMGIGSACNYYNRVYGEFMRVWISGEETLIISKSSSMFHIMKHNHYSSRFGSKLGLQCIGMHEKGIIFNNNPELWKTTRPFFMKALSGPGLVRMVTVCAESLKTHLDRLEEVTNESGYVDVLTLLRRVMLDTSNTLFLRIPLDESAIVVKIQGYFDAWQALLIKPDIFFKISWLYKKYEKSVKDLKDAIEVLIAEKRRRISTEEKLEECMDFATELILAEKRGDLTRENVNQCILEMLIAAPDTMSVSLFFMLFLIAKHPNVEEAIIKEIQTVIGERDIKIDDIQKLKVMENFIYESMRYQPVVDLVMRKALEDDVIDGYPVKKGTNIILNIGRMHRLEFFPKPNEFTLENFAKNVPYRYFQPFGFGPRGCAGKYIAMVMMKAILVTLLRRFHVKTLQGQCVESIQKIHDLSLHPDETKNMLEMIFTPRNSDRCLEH

| IC50 (Aromatase) [µM] | Compound | GI50 (MCF7) [µM] | GI50 (MDA-MB-231) [µM] |
| --- | --- | --- | --- |
| – | O=c1c2ccccc2oc2cc(Cn3ccnc3)ccc12 | 19.9 | 30.4 |
| 5.55 | CCC#CCOc1cc(Cn2ccnc2)c2oc3ccccc3c(=O)c2c1 | 52.3 | 21.1 |
| – | O=c1c2ccccc2oc2c(Cn3ccnc3)cccc12 | 69.1 | 58.3 |
| 2.85 | CCC#CCOc1cc(Cn2ccnc2)c2c(=O)c3ccccc3oc2c1 | 6.3 | 17.5 |
| 0.77 | CCC#CCOc1ccc2c(=O)c3ccc(Cn4ccnc4)cc3oc2c1 | > 100 | > 100 |
| – | O=c1c2ccccc2oc2cccc(Cn3ccnc3)c12 | 59 | 44.3 |
| – | N#Cc1ccc(C(c2ccc(C#N)cc2)n2cncn2)cc1 [LETROZOLE] | – | 34 |
